Measured values taken from ChEMBL document CHEMBL5465560, “Selectivity Literature for EUbOPEN Chemogenomic Library” (2024).

Assays:
[1] = system: Hepatocyte growth factor receptor (Homo sapiens), P08581 [Y1235D]; assay: (§1) Selectivity interaction (KinomeScan (DiscoverX)) EUB0001049a MET; details: at 1 µM
[2] = system: Hepatocyte growth factor receptor (Homo sapiens), P08581 [M1250T]; assay: as §1; details: at 1 µM
[3] = target: Hepatocyte growth factor receptor (Homo sapiens, UniProt P08581); assay: as §1; details: at 1 µM
[4] = target: Serine/threonine-protein kinase MRCK gamma (Homo sapiens) (UniProt Q6DT37); assay: Selectivity interaction (KinomeScan (DiscoverX)) EUB0000666a CDC42BPG; details: at 10 µM
[5] = target: DNA (cytosine-5)-methyltransferase 3A (Homo sapiens) (UniProt Q9Y6K1); details: at 10 µM
[6] = target: Serine/threonine-protein kinase N1 (Homo sapiens, UniProt Q16512); assay: Selectivity interaction (KinomeScan (DiscoverX)) EUB0000229b PKN1; details: at 10 µM
[7] = target: Cyclin-dependent kinase 19 (Homo sapiens) (UniProt Q9BWU1); assay: Selectivity interaction (KinomeScan (DiscoverX)) EUB0000229b CDK19; details: at 10 µM
[8] = target: T1, Serine/threonine-protein kinase 26 (Homo sapiens, UniProt Q9P289); assay: Selectivity interaction (KinomeScan (DiscoverX)) EUB0000229b STK26; details: at 10 µM
T1 sequence (Q9P289 2-416 limits assumed): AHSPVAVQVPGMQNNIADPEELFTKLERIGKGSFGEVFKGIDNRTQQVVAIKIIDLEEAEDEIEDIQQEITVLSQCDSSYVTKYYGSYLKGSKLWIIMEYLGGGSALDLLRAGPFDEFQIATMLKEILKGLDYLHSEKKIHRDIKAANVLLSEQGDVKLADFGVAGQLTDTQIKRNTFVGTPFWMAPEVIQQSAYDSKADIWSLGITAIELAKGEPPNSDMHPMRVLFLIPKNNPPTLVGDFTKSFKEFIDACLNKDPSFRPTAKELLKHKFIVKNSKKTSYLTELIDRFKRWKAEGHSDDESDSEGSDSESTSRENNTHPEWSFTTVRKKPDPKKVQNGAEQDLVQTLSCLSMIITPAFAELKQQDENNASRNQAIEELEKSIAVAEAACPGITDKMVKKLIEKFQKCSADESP

[9] = target: P2X purinoceptor 1 (Homo sapiens) (UniProt P51575); assay: Selectivity interaction (Eurofins CEREP Diversity Profile (receptors and ion channels)) EUB0000279b P2RX1; details: at 10 µM
[10] = target: Fibroblast growth factor receptor 4 (Homo sapiens, UniProt P22455); assay: Selectivity interaction (KinomeScan (DiscoverX)) EUB0001079a FGFR4; details: at 1 µM
Chain of Fibroblast growth factor receptor 4 (P22455 22-802 limits assumed): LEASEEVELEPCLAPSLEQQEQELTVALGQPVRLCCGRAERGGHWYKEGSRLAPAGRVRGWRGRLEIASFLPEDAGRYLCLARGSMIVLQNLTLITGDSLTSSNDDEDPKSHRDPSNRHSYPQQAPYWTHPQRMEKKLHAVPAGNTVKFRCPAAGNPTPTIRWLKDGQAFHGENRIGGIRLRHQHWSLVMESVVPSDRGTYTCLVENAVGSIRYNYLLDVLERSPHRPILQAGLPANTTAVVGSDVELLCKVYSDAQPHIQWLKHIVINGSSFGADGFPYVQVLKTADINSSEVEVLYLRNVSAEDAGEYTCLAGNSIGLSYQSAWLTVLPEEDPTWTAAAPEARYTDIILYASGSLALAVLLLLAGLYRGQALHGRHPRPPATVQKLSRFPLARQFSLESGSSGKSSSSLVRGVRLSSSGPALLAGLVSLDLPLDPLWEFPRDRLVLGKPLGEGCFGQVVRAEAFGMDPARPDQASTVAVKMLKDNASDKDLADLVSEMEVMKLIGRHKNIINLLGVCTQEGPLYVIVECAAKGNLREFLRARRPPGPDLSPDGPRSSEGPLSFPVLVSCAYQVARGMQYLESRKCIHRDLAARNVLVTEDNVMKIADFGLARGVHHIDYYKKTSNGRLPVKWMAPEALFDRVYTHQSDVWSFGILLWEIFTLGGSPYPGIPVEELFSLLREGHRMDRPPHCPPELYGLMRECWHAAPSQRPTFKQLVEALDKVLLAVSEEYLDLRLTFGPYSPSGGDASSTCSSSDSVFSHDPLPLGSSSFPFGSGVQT

[11] = target: BMP-2-inducible protein kinase (Homo sapiens) (UniProt Q9NSY1); assay: Selectivity interaction (Kinase panel (DSF assay)) EUB0001558a BMP2K
Chain of BMP-2-inducible protein kinase (Homo sapiens) (Q9NSY1 whole entry, looked up): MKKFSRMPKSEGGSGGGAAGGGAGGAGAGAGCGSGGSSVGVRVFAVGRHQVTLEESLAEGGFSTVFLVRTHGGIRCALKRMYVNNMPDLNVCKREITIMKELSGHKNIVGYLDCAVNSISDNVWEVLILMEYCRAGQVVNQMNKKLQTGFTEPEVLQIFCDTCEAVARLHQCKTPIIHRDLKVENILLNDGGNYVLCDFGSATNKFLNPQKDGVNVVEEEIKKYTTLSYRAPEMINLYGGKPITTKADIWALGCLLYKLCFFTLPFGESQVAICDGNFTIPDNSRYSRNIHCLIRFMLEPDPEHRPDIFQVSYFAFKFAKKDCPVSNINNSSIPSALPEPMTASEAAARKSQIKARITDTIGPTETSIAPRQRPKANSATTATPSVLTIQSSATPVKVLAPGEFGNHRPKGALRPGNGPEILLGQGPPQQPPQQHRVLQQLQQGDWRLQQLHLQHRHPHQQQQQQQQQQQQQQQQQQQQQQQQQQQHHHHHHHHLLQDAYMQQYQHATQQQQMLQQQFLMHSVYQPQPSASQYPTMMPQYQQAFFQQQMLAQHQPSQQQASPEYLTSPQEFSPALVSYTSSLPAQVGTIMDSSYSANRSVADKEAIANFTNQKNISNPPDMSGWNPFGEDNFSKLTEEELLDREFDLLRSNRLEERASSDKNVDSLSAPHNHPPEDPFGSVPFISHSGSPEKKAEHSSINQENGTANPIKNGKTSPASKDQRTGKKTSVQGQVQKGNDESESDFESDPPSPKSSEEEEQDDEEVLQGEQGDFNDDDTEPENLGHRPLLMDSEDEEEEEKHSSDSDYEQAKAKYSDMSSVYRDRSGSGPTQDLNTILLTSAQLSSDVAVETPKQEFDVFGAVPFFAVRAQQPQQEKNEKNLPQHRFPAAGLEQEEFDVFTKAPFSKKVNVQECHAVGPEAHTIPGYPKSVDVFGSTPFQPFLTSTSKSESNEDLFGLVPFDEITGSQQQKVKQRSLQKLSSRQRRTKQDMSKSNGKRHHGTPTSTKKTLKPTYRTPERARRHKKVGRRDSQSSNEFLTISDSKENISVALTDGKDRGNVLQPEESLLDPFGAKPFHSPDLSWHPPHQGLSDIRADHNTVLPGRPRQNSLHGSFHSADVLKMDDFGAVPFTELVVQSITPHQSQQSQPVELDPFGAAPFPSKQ

[12] = target: Serine/threonine-protein kinase WNK1 (Homo sapiens) (UniProt Q9H4A3); assay: Selectivity interaction (Kinase panel (DSF assay)) EUB0001558a WNK1
[13] = target: Serine/threonine-protein kinase mTOR (Homo sapiens, UniProt P42345); assay: Selectivity interaction (Kinase panel (KiNativ target engagement assay in Jurkat cells)) EUB0001635a MTOR; type: cell-based; details: Selectivity number of off-targets 0.0, Selectivity number of targets 233.0, Source Knowledge https://www.sciencedirect.com/science/article/pii/S2451945619300674?via%3Dihub, at 1 µM
[14] = target: Receptor tyrosine-protein kinase erbB-3 (Homo sapiens) (UniProt P21860); assay: Selectivity interaction (KinomeScan (DiscoverX)) EUB0000595a ERBB3; details: at 10 µM
[15] = target: Ephrin type-A receptor 7 (Homo sapiens) (UniProt Q15375); assay: Selectivity interaction (KinomeScan (DiscoverX)) EUB0000595a EPHA7; details: at 10 µM
[16] = target: Myosin light chain kinase, smooth muscle (Homo sapiens, UniProt Q15746); assay: Selectivity interaction (KinomeScan (DiscoverX)) EUB0000092b MYLK; details: at 10 µM
[17] = target: BMP-2-inducible protein kinase (Homo sapiens) (UniProt Q9NSY1); assay: Selectivity interaction (KinomeScan (DiscoverX)) EUB0001619a BMP2K; details: at 1 µM
[18] = target: Mitogen-activated protein kinase kinase kinase 14 (Homo sapiens) (UniProt Q99558); assay: Selectivity interaction (KinomeScan (DiscoverX)) EUB0000695a MAP3K14; details: at 100 nM
[19] = target: T1, Serine/threonine-protein kinase 26; assay: Selectivity interaction (KinomeScan (DiscoverX)) EUB0000695a STK26; details: at 100 nM
[20] = system: Phosphatidylinositol 4,5-bisphosphate 3-kinase catalytic subunit alpha isoform (Homo sapiens), P42336 [M1043I]; details: at 10 µM
[21] = target: T2, Serine/threonine-protein kinase TAO3 (Homo sapiens) (UniProt Q9H2K8); assay: Selectivity interaction (KinomeScan (DiscoverX)) EUB0000607a TAOK3; details: at 10 µM
T2 sequence (whole entry): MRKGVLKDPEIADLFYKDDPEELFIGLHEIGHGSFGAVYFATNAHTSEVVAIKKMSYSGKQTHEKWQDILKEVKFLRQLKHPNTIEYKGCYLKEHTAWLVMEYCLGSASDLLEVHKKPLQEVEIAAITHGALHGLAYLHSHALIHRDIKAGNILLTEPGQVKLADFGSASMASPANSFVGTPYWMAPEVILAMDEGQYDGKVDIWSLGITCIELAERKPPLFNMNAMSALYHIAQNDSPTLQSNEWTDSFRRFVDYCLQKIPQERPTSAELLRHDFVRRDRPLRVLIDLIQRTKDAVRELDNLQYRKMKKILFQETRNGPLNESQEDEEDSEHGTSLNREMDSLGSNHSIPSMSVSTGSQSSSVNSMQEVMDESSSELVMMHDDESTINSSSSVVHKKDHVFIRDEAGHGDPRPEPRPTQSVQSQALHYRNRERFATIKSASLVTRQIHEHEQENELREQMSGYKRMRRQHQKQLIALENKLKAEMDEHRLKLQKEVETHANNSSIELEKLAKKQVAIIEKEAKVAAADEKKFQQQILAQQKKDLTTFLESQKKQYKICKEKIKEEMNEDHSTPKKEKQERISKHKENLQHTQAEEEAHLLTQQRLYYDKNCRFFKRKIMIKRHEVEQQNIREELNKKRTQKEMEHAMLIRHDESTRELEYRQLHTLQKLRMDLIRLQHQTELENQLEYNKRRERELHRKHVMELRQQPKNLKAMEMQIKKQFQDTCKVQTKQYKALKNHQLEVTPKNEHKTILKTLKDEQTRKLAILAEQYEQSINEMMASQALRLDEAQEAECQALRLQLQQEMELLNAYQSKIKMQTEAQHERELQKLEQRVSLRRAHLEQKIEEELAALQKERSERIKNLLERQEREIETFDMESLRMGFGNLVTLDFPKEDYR

[22] = target: T3, Non-receptor tyrosine-protein kinase TYK2 (Homo sapiens, UniProt P29597); assay: Selectivity interaction (KinomeScan (DiscoverX)) EUB0000607a TYK2; details: at 10 µM
T3 sequence (P29597 whole entry): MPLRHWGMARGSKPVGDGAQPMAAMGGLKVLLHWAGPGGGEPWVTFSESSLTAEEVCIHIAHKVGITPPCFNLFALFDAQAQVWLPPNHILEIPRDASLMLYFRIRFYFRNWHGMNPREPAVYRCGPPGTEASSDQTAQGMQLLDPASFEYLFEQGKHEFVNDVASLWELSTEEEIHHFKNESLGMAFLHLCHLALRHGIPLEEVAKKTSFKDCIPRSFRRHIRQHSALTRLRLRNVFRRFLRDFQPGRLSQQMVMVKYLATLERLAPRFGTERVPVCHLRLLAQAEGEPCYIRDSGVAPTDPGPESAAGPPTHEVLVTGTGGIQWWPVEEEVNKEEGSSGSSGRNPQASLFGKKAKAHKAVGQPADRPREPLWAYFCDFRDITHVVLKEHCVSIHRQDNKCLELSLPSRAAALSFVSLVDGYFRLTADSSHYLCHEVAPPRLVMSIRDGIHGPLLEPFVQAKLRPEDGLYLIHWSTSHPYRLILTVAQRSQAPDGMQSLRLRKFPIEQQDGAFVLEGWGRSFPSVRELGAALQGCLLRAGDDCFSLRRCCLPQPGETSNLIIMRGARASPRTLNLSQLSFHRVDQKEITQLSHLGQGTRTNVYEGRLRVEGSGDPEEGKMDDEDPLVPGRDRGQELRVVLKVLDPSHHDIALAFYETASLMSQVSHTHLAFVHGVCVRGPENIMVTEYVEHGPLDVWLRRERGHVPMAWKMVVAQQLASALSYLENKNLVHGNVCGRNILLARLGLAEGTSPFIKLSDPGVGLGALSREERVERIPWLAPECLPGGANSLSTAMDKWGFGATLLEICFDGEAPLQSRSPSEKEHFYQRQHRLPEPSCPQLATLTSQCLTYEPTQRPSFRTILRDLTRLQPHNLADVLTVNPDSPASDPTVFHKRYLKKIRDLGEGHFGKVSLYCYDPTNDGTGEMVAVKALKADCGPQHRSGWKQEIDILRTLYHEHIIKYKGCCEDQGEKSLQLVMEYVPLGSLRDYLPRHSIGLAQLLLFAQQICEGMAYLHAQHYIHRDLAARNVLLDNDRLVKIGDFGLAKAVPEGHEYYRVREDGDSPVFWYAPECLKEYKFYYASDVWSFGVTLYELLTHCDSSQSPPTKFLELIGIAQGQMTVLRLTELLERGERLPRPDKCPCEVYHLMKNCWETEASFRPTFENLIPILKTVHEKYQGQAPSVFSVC

[23] = target: Mitogen-activated protein kinase kinase kinase 9 (Homo sapiens) (UniProt P80192); assay: Selectivity interaction (Kinase panel (Z-LYTE Assay)) EUB0001632a MAP3K9; details: at 10 µM
[24] = target: T3, Non-receptor tyrosine-protein kinase TYK2; assay: Selectivity interaction (ProQinase) EUB0000171b TYK2

Chain of Hepatocyte growth factor receptor (Homo sapiens), P08581 [M1250T] (P08581 whole entry M1250T): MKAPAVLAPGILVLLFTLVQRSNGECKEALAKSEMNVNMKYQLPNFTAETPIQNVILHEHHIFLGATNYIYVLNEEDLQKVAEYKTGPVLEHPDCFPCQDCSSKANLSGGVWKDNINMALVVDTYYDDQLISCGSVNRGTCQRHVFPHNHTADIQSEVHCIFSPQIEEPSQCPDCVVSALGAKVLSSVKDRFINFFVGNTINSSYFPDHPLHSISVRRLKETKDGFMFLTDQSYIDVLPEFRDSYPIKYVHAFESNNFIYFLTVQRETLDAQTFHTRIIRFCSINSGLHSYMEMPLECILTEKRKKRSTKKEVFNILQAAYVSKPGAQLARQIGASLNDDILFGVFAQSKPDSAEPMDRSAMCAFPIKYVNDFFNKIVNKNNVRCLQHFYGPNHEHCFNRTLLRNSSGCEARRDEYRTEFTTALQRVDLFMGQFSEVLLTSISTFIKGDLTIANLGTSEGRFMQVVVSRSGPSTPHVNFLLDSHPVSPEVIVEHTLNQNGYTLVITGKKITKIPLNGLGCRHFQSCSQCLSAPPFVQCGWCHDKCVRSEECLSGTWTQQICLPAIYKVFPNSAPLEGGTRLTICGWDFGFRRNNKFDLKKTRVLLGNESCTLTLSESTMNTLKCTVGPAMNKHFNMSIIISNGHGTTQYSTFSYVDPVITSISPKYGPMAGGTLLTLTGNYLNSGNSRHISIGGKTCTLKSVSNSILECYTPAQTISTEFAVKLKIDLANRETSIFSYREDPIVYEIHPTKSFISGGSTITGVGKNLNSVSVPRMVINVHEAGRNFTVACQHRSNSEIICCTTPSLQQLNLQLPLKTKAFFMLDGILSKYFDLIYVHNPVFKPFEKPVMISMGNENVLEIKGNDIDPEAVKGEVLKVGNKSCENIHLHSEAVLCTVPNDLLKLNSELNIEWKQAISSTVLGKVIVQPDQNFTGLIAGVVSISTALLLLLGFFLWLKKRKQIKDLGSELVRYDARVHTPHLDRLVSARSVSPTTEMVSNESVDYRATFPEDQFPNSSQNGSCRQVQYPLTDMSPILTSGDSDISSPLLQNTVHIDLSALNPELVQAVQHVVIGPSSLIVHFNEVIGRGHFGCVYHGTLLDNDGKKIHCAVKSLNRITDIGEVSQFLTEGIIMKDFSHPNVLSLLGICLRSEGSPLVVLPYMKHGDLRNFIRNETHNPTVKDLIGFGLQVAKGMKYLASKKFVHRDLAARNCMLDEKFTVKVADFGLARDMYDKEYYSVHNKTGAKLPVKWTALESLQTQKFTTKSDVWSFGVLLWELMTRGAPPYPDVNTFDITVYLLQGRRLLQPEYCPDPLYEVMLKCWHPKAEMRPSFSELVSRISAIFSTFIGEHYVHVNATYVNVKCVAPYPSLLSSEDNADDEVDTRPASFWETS

SMILES: COc1cc(Nc2nc(C)cc(-c3cnn4nc(OC)ccc34)n2)cc(C(F)(F)F)c1
- % of control [1]: 82%
- % of control [2]: 100%
- % of control [3]: 93%

SMILES: O=C(NOC[C@H](O)CO)c1ccc(F)c(F)c1Nc1ccc(I)cc1F
- % of control [4]: 85%

SMILES: CNCCN1CCC(c2cc(CN(C)C(=O)c3cccc(Oc4ccccc4)c3)ccn2)CC1
- % activity [5]: > 90%

SMILES: COc1cc(N(C)c2ccnc3ccc(C(F)(F)F)cc23)cc(OC)c1OC
- % binding [6]: 81%
- % binding [7]: 69%
- % binding [8]: 99%

SMILES: CC(=O)c1cc(-c2ccccc2OCC2CC2)c2ncccn12
- % of control [9]: 89%

SMILES: Nc1cnc(N2CCc3cc(S(=O)(=O)Nc4c(F)cc(Cl)cc4F)cc(N4CCCC4=O)c32)nc1 [TP-020n]
- % of control [10]: 100%

SMILES: CC(C)(O)[C@H](F)CN1Cc2cc(NC(=O)c3cnn4cccnc34)c(N3CCOCC3)cc2C1=O
- dTM [11]: 8.7 K
- dTM [12]: -0.2 K

SMILES: C=CC(=O)Nc1ccc(C(=O)Nc2[nH]nc3c2CN(C(=O)N[C@H](CN(C)C)c2ccccc2)C3(C)C)cc1
- % of engagement [13]: -11.9%

SMILES: COCC(=O)NC/C=C/c1ccc2ncnc(Nc3ccc(Oc4ccc(C)nc4)c(C)c3)c2c1 [CP-724714]
- % of control [14]: 20%
- % of control [15]: 100%

SMILES: CCC(=O)N1CCN(c2ccc(-n3c(=O)ccc4cnc5ccc(-c6cnc7ccccc7c6)cc5c43)cc2C(F)(F)F)CC1
- % of control [16]: 87%

SMILES: N#Cc1cccc(-c2c[nH]c3ncnc(N4CCOCC4)c23)c1
- % of control [17]: 54%

SMILES: Cc1cc(F)c(C(=O)Nc2cccc(-c3nncn3C(C)C)n2)cc1-n1cnc(C2CC2)c1
- % of control [18]: 36%
- % of control [19]: 100%

SMILES: CNC(=O)Nc1ccc(-c2nc(N3CC4CCC(C3)O4)c3cnn(C4CCC5(CC4)OCCO5)c3n2)cc1
- % of control [20]: 4.4%
- % of control [21]: 90%
- % of control [22]: 100%

SMILES: Cn1cc(-n2cnc3c(NCc4nc5cc(Cl)c(Cl)cc5[nH]4)nc(N4CCOCC4)nc32)cn1
- % of control [23]: -5.34%

SMILES: C=CC(=O)Nc1cccc(C(=O)Nc2ccc(Nc3cc(-c4[nH]c(SC)nc4C)ccn3)cc2)c1
- % of control ([24]; at 1 µM): 77%
- % of control ([24]; at 5 µM): 46%
